Experimental data: ChEMBL document CHEMBL1201862, “PubChem BioAssay data set” (2004)
Calls of active or inactive are those of the source.

Assays:
[1] = biological target: T1, Heat shock factor protein 1 (Mus musculus, UniProt P38532); test: inhibition of MG132-induced HSE-luciferase signal, confirmation, cell-based, NIH3T3, luminescence, dose retest (AID 2382); type: functional;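 note: NIH3T3 fibroblasts with HSF1-driven luciferase reporter stressed by proteasome inhibitor MG132; luminescence from HSF1-driven luciferase expression after 8 hours of MG132 stress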
T1 sequence (P38532 whole entry): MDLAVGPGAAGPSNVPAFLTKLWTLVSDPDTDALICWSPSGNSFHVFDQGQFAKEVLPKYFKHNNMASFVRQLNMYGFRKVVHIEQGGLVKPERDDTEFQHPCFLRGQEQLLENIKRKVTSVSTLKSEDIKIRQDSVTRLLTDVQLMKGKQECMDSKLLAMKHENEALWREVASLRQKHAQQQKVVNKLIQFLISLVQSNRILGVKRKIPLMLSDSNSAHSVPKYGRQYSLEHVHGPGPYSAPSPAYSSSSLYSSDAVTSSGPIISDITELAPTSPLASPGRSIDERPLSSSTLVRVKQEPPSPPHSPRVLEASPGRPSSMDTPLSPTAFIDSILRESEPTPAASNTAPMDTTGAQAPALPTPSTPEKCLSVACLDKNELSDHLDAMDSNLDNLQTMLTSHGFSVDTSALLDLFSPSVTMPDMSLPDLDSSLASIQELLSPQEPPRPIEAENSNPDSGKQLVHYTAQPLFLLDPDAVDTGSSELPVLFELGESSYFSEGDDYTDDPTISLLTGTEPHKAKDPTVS

[2] = biological target: T2, Estrogen receptor (Homo sapiens, UniProt P03372); test: potentiators of ERα–SRC-1 coactivator binding, dose response, biochemical, TR-FRET, ERα LBD (AID 737)
T2 sequence (P03372 whole entry): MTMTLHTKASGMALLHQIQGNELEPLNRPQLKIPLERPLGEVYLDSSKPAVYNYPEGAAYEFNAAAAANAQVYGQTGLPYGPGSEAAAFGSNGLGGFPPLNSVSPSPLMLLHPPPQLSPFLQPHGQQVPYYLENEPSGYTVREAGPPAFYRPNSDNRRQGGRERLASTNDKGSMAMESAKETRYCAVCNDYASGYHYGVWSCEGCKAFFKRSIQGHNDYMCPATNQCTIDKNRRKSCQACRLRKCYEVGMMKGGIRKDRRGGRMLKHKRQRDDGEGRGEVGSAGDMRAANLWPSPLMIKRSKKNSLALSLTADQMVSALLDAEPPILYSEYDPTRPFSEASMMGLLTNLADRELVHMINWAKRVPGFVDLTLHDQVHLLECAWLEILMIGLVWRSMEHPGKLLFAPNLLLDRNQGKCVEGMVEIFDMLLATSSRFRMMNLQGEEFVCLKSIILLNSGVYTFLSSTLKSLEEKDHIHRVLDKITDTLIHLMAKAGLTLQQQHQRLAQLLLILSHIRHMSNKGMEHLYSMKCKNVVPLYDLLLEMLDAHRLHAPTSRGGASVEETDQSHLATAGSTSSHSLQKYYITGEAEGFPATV

[3] = biological target: Neuropeptides B/W receptor type 1 (Homo sapiens, UniProt P48145); test: Fluorescence-based dose response cell-based high throughput screening assay to identify antagonists of the G-protein coupled receptor 7 (GPR7). [Related pubchem assays: 1952 (Screening assay (GPR7 antagonists).), 1880 (Summary AID.)]; type: functional
[4] = biological target: T3, Neuropeptide Y receptor type 2 (Homo sapiens, UniProt P49146); test: NPY-Y2 antagonist potency, selectivity check, dose response, counter-screen for NPY-Y1 antagonist project, cell-based (AID 1278); type: functional
T3 sequence (P49146 whole entry): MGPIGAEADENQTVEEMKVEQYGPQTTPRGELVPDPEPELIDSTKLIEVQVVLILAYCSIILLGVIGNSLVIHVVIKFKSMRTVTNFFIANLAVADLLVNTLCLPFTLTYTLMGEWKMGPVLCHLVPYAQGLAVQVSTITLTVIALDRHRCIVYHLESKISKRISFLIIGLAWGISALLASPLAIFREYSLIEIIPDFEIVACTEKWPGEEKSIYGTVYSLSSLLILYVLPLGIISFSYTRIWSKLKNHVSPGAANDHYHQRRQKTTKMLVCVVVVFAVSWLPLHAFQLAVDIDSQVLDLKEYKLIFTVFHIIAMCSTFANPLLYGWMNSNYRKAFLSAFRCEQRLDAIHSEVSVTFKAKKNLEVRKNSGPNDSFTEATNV

[5] = biological target: Melanin-concentrating hormone receptor 1 (Homo sapiens, UniProt Q99705); test: Fluorescence-based counterscreen for antagonists of the G-protein coupled receptor 7 (GPR7): cell-based high throughput dose response assay to identify antagonists of the melanin-concentrating hormone receptor 1 (MCHR1).; type: functional
[6] = biological target: T4, Neuropeptide Y receptor type 1 (Homo sapiens, UniProt P25929); test: NPY-Y1 receptor antagonist potency, dose response, cell-based (AID 1277); type: functional
T4 sequence (P25929 whole entry): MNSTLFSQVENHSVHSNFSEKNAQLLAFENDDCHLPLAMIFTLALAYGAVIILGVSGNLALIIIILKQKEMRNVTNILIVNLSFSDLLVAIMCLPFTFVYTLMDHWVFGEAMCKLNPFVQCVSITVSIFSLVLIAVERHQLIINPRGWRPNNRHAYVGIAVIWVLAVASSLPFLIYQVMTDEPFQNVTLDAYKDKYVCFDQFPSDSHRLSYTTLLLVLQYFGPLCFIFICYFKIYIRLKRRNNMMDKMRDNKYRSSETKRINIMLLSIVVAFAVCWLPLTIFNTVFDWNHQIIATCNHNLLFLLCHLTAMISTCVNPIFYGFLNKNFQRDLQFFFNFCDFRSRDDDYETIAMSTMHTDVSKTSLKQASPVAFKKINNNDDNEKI

[7] = biological target: T5, Aminopeptidase N (Plasmodium falciparum FcB1/Columbia, UniProt O96935); test: P. falciparum M1AAP inhibitors, biochemical, fluorogenic H-Leu-NHMec substrate, 1536-well (AID 1445); design: species or system Plasmodium falciparum 3D7, 3D7
T5 sequence (O96935 whole entry): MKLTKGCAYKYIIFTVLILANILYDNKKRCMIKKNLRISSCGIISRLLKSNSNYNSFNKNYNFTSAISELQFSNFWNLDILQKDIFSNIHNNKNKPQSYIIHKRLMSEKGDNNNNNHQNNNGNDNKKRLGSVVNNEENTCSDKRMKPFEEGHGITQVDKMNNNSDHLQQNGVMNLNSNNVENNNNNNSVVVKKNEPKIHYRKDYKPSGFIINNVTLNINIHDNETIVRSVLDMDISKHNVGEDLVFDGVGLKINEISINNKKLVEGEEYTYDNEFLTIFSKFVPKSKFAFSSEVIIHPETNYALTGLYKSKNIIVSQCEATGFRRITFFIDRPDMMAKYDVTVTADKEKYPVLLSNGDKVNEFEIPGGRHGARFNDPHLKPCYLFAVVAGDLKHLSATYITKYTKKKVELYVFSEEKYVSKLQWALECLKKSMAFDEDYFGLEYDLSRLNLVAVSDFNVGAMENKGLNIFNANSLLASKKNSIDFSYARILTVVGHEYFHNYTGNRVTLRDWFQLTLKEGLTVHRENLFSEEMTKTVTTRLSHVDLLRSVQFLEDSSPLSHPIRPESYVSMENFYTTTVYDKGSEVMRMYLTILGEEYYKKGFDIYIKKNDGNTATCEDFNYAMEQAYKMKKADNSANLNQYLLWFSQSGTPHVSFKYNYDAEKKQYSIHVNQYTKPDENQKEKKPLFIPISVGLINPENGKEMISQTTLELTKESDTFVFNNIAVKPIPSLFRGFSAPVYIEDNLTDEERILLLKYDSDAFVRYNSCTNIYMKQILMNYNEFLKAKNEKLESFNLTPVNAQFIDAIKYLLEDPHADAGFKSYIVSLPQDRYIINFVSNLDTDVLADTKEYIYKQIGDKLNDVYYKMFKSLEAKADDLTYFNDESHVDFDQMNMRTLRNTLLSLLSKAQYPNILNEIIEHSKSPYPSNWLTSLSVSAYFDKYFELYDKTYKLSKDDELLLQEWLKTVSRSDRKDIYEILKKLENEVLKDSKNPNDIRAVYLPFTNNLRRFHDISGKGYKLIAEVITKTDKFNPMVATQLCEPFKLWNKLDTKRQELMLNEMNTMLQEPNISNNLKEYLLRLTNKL

[8] = inhibitors of Bluetongue virus cytopathic effect, confirmation, arbovirus, BSR cells (AID 1250); type: functional;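 note: protection from viral cytopathic effect measured as cell viability by ATP luminescence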
[9] = NIH-3T3 fibroblast cytotoxicity, dose response, cytotoxicity control, cell-based, fluorescence, Alamar Blue, secondary assay (AID 2327); type: functional;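 note: NIH-3T3 mouse fibroblasts cultured with fluconazole at 8 µg/mL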
[10] = C. albicans growth with fluconazole, confirmation, fluorescence, retest (AID 2467); type: functional, cell-based
[11] = biological target: NS3 (Hepatitis C virus, UniProt A3EZJ3); test: PubChem AID 2173; design: species or system Hepacivirus hominis
[12] = biological target: 26S proteasome non-ATPase regulatory subunit 14 (Homo sapiens, UniProt O00487); test: inhibition of proteasome subunit RPN11 – biochemical, fluorescence polarization, uHTS hits, confirmation (AID 602368); type: functional
[13] = biological target: 72 kDa type IV collagenase (Homo sapiens, UniProt P08253); test: Dose Response validation of uHTS RPN11 inhibitor hits using a MMP-2 Fluorescence assay.; type: functional
[14] = biological target: Prothrombin (Bos taurus, UniProt P00735); test: thrombin inhibition, dose response, biochemical, fluorescence polarization, uHTS hits (AID 602369); type: functional
[15] = biological target: Mucolipin-3 (Homo sapiens, UniProt Q8TDD5); test: Dose response cell-based high-throughput screening assay for agonists of the transient receptor potential channel ML3 (TRPML3). [Related pubchem assays: 1526, 1424, 1448 ]; type: functional
[16] = biological target: Ion channel NompC (Danio rerio, UniProt Q7T1G6); test: Fluorescence counterscreen assay for TRPML3 agonists: dose response cell-based high-throughput screening assay to identify agonists of the transient receptor potential channel N1 (TRPN1). [Related pubchem assays: 1526, 1424, 1448 ]; type: functional
[17] = biological target: Potassium voltage-gated channel subfamily KQT member 2 (Rattus norvegicus, UniProt O88943, W236L); test: KCNQ2 channel potentiators, dose response, mechanism study for KCNQ2 potentiator project, cell-based, automated electrophysiology (AID 2603); type: functional
[18] = biological target: T6, Calpain-2 catalytic subunit (Sus scrofa, UniProt P43367); test: pig calpain II inhibitor potency, dose response, biochemical, fluorogenic peptide substrate (AID 1420); type: functional
T6 sequence (P43367 whole entry): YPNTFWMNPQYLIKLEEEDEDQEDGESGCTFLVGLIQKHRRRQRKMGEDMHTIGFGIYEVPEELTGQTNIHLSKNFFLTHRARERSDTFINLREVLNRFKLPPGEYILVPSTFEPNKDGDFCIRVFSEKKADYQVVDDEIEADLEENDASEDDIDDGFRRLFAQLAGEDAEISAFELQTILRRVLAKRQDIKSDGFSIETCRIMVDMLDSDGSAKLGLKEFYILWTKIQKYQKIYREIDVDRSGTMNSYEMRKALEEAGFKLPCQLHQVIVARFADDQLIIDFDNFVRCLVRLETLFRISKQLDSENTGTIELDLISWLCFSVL

Sequence of Melanin-concentrating hormone receptor 1 (Q99705 whole entry): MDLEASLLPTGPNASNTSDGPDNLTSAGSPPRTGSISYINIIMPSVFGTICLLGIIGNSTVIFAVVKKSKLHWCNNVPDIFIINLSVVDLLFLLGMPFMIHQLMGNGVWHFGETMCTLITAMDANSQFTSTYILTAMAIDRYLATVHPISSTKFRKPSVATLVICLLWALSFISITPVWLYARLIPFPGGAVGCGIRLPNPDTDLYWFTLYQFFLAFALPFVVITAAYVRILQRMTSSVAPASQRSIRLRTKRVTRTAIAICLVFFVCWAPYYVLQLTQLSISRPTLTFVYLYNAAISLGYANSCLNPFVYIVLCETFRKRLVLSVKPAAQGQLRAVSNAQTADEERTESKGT
Sequence of 72 kDa type IV collagenase (P08253 whole entry): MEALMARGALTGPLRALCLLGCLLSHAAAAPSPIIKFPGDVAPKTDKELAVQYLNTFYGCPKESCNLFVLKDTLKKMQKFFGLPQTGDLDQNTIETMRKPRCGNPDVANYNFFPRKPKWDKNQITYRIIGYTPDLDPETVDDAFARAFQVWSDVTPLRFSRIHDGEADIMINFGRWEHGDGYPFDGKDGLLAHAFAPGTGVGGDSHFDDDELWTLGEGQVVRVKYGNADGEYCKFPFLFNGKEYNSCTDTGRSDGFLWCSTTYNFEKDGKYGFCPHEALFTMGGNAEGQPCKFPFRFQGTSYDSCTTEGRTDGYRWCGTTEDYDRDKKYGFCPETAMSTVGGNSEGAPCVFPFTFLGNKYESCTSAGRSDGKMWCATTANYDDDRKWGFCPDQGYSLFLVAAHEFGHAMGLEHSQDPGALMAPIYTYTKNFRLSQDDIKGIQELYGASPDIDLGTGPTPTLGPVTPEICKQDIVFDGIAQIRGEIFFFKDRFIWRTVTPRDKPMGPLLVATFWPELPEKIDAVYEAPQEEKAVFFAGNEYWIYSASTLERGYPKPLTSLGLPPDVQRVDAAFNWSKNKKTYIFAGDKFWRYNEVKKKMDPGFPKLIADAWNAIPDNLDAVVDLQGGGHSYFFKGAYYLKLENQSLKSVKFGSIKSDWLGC
Sequence of Mucolipin-3 (Q8TDD5 whole entry): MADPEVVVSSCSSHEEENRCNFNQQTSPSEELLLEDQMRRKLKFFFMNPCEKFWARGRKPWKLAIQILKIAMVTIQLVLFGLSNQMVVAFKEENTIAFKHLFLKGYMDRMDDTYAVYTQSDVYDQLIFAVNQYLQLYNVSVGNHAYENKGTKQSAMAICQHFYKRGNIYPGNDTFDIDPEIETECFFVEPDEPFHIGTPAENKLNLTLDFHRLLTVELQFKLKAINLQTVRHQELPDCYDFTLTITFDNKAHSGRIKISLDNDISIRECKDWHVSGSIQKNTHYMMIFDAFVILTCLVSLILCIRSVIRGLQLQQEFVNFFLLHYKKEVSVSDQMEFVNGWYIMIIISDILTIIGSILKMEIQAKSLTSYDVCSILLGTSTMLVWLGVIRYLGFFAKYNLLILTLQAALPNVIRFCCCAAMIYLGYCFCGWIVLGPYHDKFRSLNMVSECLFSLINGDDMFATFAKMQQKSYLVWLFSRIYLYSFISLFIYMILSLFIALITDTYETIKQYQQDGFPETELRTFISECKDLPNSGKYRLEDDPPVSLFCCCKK
Sequence of Ion channel NompC (Q7T1G6 whole entry): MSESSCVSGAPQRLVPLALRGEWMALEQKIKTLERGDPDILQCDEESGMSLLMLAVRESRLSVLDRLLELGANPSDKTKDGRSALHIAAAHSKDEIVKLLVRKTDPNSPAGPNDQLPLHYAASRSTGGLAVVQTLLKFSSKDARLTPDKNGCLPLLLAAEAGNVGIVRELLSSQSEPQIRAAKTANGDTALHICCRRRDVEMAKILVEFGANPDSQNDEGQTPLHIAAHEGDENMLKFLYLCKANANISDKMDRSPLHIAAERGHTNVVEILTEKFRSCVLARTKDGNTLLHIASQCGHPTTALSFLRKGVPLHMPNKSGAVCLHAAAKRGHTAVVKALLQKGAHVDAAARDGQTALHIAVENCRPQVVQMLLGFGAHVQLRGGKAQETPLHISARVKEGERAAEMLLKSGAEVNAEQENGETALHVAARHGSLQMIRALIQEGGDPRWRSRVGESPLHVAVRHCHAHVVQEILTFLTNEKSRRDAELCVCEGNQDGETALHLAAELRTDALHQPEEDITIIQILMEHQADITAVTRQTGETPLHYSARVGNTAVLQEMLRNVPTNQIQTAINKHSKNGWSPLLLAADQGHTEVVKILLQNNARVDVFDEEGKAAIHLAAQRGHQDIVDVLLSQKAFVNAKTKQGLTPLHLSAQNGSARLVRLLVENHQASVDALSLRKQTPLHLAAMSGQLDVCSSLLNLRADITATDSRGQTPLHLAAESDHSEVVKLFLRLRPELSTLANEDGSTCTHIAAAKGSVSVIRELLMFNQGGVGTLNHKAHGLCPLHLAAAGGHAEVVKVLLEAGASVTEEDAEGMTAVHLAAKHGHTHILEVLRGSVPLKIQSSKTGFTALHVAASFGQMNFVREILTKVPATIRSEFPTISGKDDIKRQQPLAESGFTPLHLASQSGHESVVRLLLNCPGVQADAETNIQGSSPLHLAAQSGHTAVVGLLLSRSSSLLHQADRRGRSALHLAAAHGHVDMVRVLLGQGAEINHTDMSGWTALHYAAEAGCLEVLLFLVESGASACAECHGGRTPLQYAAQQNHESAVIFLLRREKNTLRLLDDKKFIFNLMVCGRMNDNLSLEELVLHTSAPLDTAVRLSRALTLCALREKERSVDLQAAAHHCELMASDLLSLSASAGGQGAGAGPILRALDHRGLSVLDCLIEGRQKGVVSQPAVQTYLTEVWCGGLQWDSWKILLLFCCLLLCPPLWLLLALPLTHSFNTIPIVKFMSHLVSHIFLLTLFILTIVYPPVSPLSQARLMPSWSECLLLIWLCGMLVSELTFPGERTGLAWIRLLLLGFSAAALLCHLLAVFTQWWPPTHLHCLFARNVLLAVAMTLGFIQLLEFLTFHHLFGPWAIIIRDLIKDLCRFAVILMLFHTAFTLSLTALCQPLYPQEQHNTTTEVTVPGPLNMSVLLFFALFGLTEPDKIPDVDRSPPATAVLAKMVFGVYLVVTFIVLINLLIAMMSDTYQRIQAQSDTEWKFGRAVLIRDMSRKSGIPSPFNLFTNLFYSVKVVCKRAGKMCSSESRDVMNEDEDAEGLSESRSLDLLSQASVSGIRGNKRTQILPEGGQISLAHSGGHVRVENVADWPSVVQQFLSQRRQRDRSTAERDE
Sequence of Neuropeptides B/W receptor type 1 (P48145 whole entry): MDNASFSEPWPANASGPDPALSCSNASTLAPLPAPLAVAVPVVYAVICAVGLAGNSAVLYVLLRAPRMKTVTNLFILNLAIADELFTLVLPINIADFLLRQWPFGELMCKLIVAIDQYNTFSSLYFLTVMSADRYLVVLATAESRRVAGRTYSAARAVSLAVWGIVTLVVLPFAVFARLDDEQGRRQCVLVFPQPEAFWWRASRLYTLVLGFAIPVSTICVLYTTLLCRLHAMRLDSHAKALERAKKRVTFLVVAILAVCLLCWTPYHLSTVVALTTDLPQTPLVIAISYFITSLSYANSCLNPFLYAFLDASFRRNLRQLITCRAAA
Sequence of Potassium voltage-gated channel subfamily KQT member 2 (O88943 whole entry W236L): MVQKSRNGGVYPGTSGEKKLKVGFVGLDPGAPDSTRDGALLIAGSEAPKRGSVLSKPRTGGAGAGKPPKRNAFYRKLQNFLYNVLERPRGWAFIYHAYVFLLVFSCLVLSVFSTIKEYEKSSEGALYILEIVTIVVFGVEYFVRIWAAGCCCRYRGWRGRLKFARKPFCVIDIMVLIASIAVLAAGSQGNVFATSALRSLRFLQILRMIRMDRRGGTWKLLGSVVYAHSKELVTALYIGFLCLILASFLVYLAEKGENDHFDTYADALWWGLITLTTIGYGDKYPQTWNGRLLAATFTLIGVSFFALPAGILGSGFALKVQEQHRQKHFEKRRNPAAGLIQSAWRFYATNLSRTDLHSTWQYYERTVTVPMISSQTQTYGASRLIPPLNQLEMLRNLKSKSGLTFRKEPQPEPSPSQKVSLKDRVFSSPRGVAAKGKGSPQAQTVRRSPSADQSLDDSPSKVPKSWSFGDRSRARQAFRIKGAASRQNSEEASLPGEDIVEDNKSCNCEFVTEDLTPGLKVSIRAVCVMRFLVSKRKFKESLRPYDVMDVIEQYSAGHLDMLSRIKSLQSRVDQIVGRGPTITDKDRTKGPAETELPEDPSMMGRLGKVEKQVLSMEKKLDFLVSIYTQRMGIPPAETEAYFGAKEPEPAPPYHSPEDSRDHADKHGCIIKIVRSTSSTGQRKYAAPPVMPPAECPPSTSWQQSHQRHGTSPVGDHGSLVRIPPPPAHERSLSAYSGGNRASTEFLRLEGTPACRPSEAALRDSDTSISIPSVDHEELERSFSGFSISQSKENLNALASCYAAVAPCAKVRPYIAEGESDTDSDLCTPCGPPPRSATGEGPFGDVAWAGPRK
Sequence of NS3 (A3EZJ3 whole entry): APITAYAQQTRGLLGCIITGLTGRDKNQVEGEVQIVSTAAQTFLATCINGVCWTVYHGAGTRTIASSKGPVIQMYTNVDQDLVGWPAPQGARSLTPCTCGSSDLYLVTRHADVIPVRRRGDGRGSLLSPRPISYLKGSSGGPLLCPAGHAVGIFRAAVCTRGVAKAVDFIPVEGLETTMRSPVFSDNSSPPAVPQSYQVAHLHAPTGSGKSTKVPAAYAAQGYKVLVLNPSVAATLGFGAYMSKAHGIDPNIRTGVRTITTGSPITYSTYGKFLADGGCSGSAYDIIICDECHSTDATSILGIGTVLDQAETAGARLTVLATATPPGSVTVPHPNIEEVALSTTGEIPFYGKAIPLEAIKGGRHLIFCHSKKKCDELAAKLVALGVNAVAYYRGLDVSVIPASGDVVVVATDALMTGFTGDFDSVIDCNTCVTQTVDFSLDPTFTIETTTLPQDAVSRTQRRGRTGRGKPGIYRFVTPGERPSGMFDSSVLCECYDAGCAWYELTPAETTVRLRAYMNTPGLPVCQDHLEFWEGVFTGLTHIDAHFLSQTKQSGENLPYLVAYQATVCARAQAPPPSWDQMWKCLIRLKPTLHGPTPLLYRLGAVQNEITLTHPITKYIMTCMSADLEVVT

COc1nnc(-c2ccc(C(=O)N3C[C@@H]4C[C@H](C3)c3cccc(=O)n3C4)cc2)c2ccccc12
EC50 [1]: > 195 µM (not active) | EC50 [2]: 15 µM (active)

O=C(NC1CCCCC1)C(c1ccncc1)N(Cc1ccc2c(c1)OCO2)C(=O)c1cnsn1 (stereo not drawn)
IC50 [3]: > 43.8 µM (not active) | IC50 [4]: > 35 µM (not active) | IC50 [5]: > 43.8 µM (not active) | IC50 [6]: 32.2 µM (not active)

Cc1ccc(C(=O)Nc2scc(-c3ccccc3)c2C(=O)O)o1
IC50 [7]: 68.4 µM (active) | IC50 [8]: 34 µM (active)

O=C1NC(=S)N(CCC2=CCCCC2)C(=O)/C1=C/NNC(=O)c1ccccc1
EC50 [9]: > 150 µM (inconclusive) | EC50 [10]: > 38 µM (not active) | IC50 [11]: 5.41 µM (active) | IC50 [12]: 43.9 µM (active) | IC50 [13]: > 100 µM (inactive) | IC50 [14]: 62.2 µM (active)

CCOC(=O)C(C)(C)N(Cc1cccc(C)c1)S(=O)(=O)c1cccc([N+](=O)[O-])c1
EC50 [15]: > 29.9 µM (not active) | EC50 [16]: > 29.9 µM (not active)

CCCCn1c(-c2csc(C(C)C)c2)n[nH]c1=S
EC50 [17]: 308 µM (active) | IC50 [18]: > 50 µM (not active)
